Test results from patent US10168342B2, “Lipid probes and uses thereof” (THE SCRIPPS RESEARCH INSTITUTE, priority 2015, dated 2019).
Where two headings read alike, the source gives them in different places.

Tests used:
[1] = target: T1, AEA-DA lipid probe targets in Neuro2a cells (Mus musculus, UniProt O08547)
T1 sequence (O08547 1-215): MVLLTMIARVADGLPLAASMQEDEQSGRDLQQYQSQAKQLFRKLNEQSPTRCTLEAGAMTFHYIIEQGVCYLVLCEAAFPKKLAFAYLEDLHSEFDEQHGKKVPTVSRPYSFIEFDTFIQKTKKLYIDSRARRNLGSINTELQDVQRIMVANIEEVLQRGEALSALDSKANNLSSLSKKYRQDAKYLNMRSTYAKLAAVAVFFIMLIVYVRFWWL

[2] = target: AEA-DA lipid probe targets in Neuro2a cells (Mus musculus, UniProt Q8BWM0)
[3] = target: T2, AEA-DA lipid probe targets in Neuro2a cells (Mus musculus, UniProt P37040)
T2 sequence (P37040 1-678): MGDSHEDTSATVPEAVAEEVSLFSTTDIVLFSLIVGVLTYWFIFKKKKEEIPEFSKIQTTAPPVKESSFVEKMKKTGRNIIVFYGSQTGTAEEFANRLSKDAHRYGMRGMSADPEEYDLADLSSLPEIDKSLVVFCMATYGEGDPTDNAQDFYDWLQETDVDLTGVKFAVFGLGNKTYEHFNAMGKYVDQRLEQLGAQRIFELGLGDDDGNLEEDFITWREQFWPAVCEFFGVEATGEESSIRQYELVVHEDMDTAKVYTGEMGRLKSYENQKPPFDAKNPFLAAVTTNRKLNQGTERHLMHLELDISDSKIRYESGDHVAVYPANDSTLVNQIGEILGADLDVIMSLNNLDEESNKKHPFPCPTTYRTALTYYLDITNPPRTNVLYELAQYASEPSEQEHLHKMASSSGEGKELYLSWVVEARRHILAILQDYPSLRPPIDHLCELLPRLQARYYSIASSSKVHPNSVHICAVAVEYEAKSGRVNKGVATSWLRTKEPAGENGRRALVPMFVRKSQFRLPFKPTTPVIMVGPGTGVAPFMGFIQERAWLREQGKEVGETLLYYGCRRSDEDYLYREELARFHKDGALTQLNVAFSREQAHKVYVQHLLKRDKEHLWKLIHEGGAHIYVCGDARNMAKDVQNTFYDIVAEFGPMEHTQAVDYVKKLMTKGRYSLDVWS

[4] = target: AEA-DA lipid probe targets in Neuro2a cells (Mus musculus, UniProt Q9Z2G6)
[5] = target: T3, AEA-DA lipid probe targets in Neuro2a cells (Mus musculus, UniProt Q60692)
T3 sequence (Q60692 1-238): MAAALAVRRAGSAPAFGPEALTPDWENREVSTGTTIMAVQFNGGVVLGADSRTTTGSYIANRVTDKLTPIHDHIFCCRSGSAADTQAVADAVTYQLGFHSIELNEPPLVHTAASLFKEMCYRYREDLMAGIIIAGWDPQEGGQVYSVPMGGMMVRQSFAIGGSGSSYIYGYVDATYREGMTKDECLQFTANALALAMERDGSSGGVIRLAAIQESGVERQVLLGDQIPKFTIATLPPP

[6] = target: T4, AEA-DA lipid probe targets in Neuro2a cells (Mus musculus, UniProt Q3UEB3)
T4 sequence (Q3UEB3 1-564): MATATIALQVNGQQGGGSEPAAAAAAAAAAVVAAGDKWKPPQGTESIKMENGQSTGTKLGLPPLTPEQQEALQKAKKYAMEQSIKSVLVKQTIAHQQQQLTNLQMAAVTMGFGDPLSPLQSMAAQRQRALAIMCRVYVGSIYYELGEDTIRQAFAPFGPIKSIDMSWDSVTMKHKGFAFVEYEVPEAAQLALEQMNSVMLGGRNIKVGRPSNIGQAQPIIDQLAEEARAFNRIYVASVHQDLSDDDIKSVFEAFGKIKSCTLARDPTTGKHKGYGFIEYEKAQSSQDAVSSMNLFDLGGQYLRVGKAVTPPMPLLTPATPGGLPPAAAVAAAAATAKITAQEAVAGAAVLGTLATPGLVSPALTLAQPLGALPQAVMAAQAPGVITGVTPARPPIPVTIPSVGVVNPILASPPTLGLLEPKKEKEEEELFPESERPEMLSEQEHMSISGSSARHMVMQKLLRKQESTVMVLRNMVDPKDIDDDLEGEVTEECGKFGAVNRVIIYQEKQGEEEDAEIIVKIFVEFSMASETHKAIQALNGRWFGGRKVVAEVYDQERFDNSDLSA

[7] = target: AEA-DA lipid probe targets in Neuro2a cells (Mus musculus, UniProt Q9D771)
[8] = target: T5, AEA-DA lipid probe targets in Neuro2a cells (Mus musculus, UniProt Q9CR67)
T5 sequence (Q9CR67 1-247): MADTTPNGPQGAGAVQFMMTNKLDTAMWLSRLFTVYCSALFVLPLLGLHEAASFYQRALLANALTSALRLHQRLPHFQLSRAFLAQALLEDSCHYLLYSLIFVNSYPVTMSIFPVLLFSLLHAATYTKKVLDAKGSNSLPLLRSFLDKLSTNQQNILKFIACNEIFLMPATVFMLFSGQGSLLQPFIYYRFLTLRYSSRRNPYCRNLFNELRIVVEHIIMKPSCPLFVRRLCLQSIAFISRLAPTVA

[9] = target: T6, AEA-DA lipid probe targets in Neuro2a cells (Mus musculus, UniProt Q3KNM2); settings: for SILAC ratio, MARCH5 (Q3KNM2): Neuro2a cells, AEA-DA probe
T6 sequence (Q3KNM2 1-278): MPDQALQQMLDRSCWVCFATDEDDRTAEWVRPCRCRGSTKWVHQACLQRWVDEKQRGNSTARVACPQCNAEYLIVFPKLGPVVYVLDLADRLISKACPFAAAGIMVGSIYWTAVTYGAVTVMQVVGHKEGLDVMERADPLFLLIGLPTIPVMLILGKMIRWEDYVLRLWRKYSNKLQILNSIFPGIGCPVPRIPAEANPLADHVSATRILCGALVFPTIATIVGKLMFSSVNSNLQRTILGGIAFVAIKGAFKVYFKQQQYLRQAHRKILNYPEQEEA

AEA-DA lipid probe targets in Neuro2a cells (Mus musculus, UniProt Q8BWM0), sequence (Q8BWM0 whole entry): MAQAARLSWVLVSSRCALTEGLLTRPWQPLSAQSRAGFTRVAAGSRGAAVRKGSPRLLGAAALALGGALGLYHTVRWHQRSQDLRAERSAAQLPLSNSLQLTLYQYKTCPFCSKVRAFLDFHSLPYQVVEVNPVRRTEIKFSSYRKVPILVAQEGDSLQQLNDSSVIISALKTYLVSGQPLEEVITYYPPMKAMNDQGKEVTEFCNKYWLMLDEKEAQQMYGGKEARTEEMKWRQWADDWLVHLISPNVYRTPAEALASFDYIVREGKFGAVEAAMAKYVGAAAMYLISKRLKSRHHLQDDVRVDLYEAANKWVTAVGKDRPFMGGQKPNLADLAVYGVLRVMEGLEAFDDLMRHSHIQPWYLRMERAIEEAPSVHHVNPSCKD
AEA-DA lipid probe targets in Neuro2a cells (Mus musculus, UniProt Q9Z2G6), sequence (Q9Z2G6 22-790): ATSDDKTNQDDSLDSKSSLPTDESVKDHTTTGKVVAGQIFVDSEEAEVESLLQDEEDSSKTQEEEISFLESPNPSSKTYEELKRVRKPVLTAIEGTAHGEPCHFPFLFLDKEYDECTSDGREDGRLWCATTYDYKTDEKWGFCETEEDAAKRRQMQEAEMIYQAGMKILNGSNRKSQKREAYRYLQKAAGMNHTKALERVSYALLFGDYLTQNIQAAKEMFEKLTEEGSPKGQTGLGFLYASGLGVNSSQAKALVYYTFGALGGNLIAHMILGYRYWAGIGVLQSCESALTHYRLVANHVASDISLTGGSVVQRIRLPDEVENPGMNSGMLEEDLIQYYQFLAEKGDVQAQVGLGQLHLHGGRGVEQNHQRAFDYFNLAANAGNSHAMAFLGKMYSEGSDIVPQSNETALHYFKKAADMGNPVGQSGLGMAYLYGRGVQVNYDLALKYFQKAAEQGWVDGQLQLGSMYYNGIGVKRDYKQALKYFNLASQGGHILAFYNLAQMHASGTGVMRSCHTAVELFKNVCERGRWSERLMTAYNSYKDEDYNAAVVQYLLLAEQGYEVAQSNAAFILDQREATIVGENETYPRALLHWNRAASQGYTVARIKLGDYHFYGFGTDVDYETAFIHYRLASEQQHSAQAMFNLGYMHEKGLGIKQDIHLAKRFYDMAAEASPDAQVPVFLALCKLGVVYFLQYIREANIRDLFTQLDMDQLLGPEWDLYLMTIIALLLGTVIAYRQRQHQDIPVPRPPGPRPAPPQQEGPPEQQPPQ
AEA-DA lipid probe targets in Neuro2a cells (Mus musculus, UniProt Q9D771), sequence (Q9D771 whole entry): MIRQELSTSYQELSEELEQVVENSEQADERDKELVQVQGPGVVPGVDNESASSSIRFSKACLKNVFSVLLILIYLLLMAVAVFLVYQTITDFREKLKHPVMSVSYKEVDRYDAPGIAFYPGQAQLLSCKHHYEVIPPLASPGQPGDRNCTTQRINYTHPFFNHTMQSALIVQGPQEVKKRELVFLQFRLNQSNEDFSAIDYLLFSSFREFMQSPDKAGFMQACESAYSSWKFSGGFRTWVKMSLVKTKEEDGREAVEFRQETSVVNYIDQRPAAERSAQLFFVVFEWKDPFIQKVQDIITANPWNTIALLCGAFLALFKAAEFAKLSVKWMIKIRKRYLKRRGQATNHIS

Question: What does the source list for `CCCCC/C=C\C/C=C\C/C=C\C/C=C\CCCC(=O)NCCO` [AEA, anandamide, reference compound]?
Answer: SILAC ratio, Sec22b ([1]; competitor 200 μM): 1.4; SILAC ratio, Ptges2 ([2]; competitor 200 μM): 2.1; SILAC ratio, Por ([3]; competitor 200 μM): 2.0; SILAC ratio, Sel1l ([4]; competitor 200 μM): 1.6; SILAC ratio Psmb6 ([5]; competitor 200 μM): 1.4; SILAC ratio Puf60 ([6]; competitor 200 μM): 1.3; SILAC ratio Tmem206 ([7]; competitor 200 μM): 1.2; SILAC ratio, Tmem33 ([8]; competitor 200 μM): 1.8

Question: Which results are given for `O=C(/C=C/c1cccnc1)NCCCCC1CCN(C(=O)c2ccccc2)CC1` [FK-866, reference compound]?
Answer: SILAC ratio, Sec22b ([1]; competitor 25 μM): 1.2; SILAC ratio, Ptges2 ([2]; competitor 25 μM): 1.4; SILAC ratio, Por ([3]; competitor 25 μM): 1.2; SILAC ratio, Sel1l ([4]; competitor 25 μM): 1.4; SILAC ratio, MARCH5 (Q3KNM2) ([9]; competitor 25 μM): 1.3; SILAC ratio, March5 ([9]; competitor 25 μM): 1.3; SILAC ratio Psmb6 ([5]; competitor 25 μM): 1.4; SILAC ratio Puf60 ([6]; competitor 25 μM): 1.3; SILAC ratio Tmem206 ([7]; competitor 25 μM): 0.9; SILAC ratio, Tmem33 ([8]; competitor 25 μM): 1.2

Question: What does the source list for `CN1CCN(C(=O)c2c(-c3ccccc3)c3cc([N+](=O)[O-])ccc3n2C)CC1` [KML110, (1-Methyl-5-nitro-3-phenyl-1H-indol-2-yl)(4-methylpiperazin-1-yl)methanone]?
Answer: SILAC ratio, Sec22b ([1]; competitor 25 μM): 1.4; SILAC ratio, Ptges2 ([2]; competitor 25 μM): 1.8; SILAC ratio, Por ([3]; competitor 25 μM): 1.6; SILAC ratio, Sel1l ([4]; competitor 25 μM): 1.5; SILAC ratio, March5 ([9]; competitor 25 μM): 1.5; SILAC ratio Psmb6 ([5]; competitor 25 μM): 1.9; SILAC ratio Puf60 ([6]; competitor 25 μM): 1.3; SILAC ratio Tmem206 ([7]; competitor 25 μM): 1.2; SILAC ratio, Tmem33 ([8]; competitor 25 μM): 1.4

Question: What does the source list for `CN1CCN(C(=O)c2[nH]c3ccc([N+](=O)[O-])cc3c2-c2ccccc2)CC1` [MJN228, (4-Methylpiperazin-1-yl)(5-nitro-3-phenyl-1H-indol-2-yl)methanone]?
Answer: SILAC ratio, Sec22b ([1]; competitor 10 μM): 1.5; SILAC ratio, Sec22b ([1]; competitor 25 μM): 1.6; SILAC ratio, Sec22b ([1]; competitor 50 μM): 2.0; SILAC ratio, Sec22b ([1]; competitor 100 μM): 2.0; SILAC ratio, Ptges2 ([2]; competitor 10 μM): 1.3; SILAC ratio, Ptges2 ([2]; competitor 25 μM): 1.4; SILAC ratio, Ptges2 ([2]; competitor 100 μM): 2.3; SILAC ratio, Por ([3]; competitor 10 μM): 1.4; SILAC ratio, Por ([3]; competitor 25 μM): 1.8; SILAC ratio, Por ([3]; competitor 50 μM): 2.0; SILAC ratio, Por ([3]; competitor 100 μM): 3.1; SILAC ratio, Sel1l ([4]; competitor 10 μM): 1.2; SILAC ratio, Sel1l ([4]; competitor 25 μM): 1.5; SILAC ratio, Sel1l ([4]; competitor 50 μM): 1.5; SILAC ratio, Sel1l ([4]; competitor 100 μM): 1.9; SILAC ratio, MARCH5 (Q3KNM2) ([9]; competitor 25 μM): 1.1; SILAC ratio, March5 ([9]; competitor 10 μM): 1.1; SILAC ratio, March5 ([9]; competitor 25 μM): 1.1; SILAC ratio, March5 ([9]; competitor 50 μM): 1.0; SILAC ratio, March5 ([9]; competitor 100 μM): 1.1; SILAC ratio Psmb6 ([5]; competitor 10 μM): 1.3; SILAC ratio Psmb6 ([5]; competitor 25 μM): 1.5; SILAC ratio Psmb6 ([5]; competitor 50 μM): 1.4; SILAC ratio Psmb6 ([5]; competitor 100 μM): 2.5; SILAC ratio Puf60 ([6]; competitor 10 μM): 1.4; SILAC ratio Puf60 ([6]; competitor 25 μM): 1.2; SILAC ratio Puf60 ([6]; competitor 50 μM): 1.0; SILAC ratio Puf60 ([6]; competitor 100 μM): 1.2; SILAC ratio Tmem206 ([7]; competitor 10 μM): 1.1; SILAC ratio Tmem206 ([7]; competitor 25 μM): 1.3; SILAC ratio Tmem206 ([7]; competitor 100 μM): 0.7; SILAC ratio, Tmem33 ([8]; competitor 10 μM): 1.3; SILAC ratio, Tmem33 ([8]; competitor 25 μM): 1.5; SILAC ratio, Tmem33 ([8]; competitor 50 μM): 1.5; SILAC ratio, Tmem33 ([8]; competitor 100 μM): 2.0

Question: Which “SILAC ratio, Sec22b” value ([1]; competitor 25 μM) does the source give for `C=CCN(C)CCCCCCOc1ccc(C(=O)c2ccc(Br)cc2)c(F)c1` [Ro 48-8071, reference compound] here?
Answer: 1.1

Question: What about the “SILAC ratio, Ptges2” value ([2]; competitor 25 μM) of the same compound?
Answer: 1.3

Question: What about the “SILAC ratio, Por” value ([3]; competitor 25 μM) of the same compound?
Answer: 1.5

Question: And the “SILAC ratio, Sel1l” value ([4]; competitor 25 μM)?
Answer: 1.2

Question: What about the “SILAC ratio, MARCH5 (Q3KNM2)” value ([9]; competitor 25 μM) of the same compound?
Answer: 1.1

Question: And the “SILAC ratio, March5” value ([9]; competitor 25 μM)?
Answer: 1.1

Question: What about the “SILAC ratio Psmb6” value ([5]; competitor 25 μM) of the same compound?
Answer: 1.0

Question: And the “SILAC ratio Puf60” value ([6]; competitor 25 μM)?
Answer: 1.0

Question: What about the “SILAC ratio Tmem206” value ([7]; competitor 25 μM) of the same compound?
Answer: 0.6

Question: What about the “SILAC ratio, Tmem33” value ([8]; competitor 25 μM) of the same compound?
Answer: 1.1
